The record followed here is patent publication US12264156B2, “Compounds and pharmaceutical compositions thereof for the treatment of diseases” (GALAPAGOS NV, priority 2018, dated 2025).

One assay deals with T1, SIK2 (Homo sapiens, UniProt Q9H0K1).
T1 construct: purchased ThermoFisher Scientific PV4792
The assay can be described thus: ADP-Glo kinase assay, SIK2. It is filed as biochemical. The following applies: ADP-Glo SIK kinase assay. The procedure, abridged: (§1)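 Wells with 1% DMSO or 10 μM staurosporine (final) define the control window. The kinase reaction with substrate and ATP runs 120 min at RT, followed by ADP-Glo detection: ATP depletion (40 min) and ADP-derived luminescence (30 min).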
A general note: In ADP-Glo the light output rises with the ADP produced.

The target of the next assay is T2, SIK1 (Homo sapiens, UniProt P57059).
T2 construct: purchased Carna Biosciences 02-131
The assay can be described thus: ADP-Glo kinase assay, SIK1. The following applies: ADP-Glo SIK kinase assay. It is filed as biochemical. An outline of the steps: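 Enzyme–substrate mix was started with ATP and incubated 120 min at RT. ADP formed was quantified by ADP-Glo: 40 min ATP depletion, then 30 min detection reagent converting ADP to ATP for luciferase luminescence, which rises with kinase activity. Controls: 1% DMSO and 10 μM staurosporine (final).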

The subject of assay [1] is LPS triggered IL-10 secretion in monocytes. The assay can be described thus: Monocytes assay: LPS-triggered IL-10 (ELISA). The class given is cell-based, human. The following applies: LPS 200 ng/mL, supernatant after 4 h, maximal fold change vs LPS only. An outline of the steps:
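Human CD14+ monocytes, magnetically isolated from buffy-coat PBMCs, were seeded at 100 000 cells/well and preincubated with compound for 1 h at 37° C (0.2% DMSO). LPS was then added at a final 200 ng/mL for 4 h. Supernatant IL-10 was quantified by chemiluminescent sandwich ELISA against a standard curve.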
(An ELISA detects its analyte on a solid surface through an enzyme-linked reagent.)

A further assay addresses T3, SIK3 (Homo sapiens, UniProt Q9Y2K2).
T3 construct: purchased SignalChem S12-11G-100
The assay can be described thus: ADP-Glo kinase assay, SIK3. The class given is biochemical. The following applies: ADP-Glo SIK kinase assay. An outline of the steps:
as §1

For assay [2], the system named is LPS-induced TNFα in monocytes. Nature of the assay: Monocytes assay: LPS-triggered TNFα (ELISA). The class given is cell-based, human. The following applies: Homo sapiens, Monocyte, LPS 200 ng/mL, supernatant after 4 h. An outline of the steps:
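Human CD14+ monocytes from buffy-coat PBMCs (magnetic bead selection) were seeded at 100 000 cells/well and pretreated with compound for 1 h at 37° C (0.2% DMSO). They were then stimulated with 200 ng/mL LPS for 4 h, and supernatant TNFα was measured by chemiluminescent sandwich ELISA as percent inhibition.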

T3 sequence (Q9Y2K2 whole entry): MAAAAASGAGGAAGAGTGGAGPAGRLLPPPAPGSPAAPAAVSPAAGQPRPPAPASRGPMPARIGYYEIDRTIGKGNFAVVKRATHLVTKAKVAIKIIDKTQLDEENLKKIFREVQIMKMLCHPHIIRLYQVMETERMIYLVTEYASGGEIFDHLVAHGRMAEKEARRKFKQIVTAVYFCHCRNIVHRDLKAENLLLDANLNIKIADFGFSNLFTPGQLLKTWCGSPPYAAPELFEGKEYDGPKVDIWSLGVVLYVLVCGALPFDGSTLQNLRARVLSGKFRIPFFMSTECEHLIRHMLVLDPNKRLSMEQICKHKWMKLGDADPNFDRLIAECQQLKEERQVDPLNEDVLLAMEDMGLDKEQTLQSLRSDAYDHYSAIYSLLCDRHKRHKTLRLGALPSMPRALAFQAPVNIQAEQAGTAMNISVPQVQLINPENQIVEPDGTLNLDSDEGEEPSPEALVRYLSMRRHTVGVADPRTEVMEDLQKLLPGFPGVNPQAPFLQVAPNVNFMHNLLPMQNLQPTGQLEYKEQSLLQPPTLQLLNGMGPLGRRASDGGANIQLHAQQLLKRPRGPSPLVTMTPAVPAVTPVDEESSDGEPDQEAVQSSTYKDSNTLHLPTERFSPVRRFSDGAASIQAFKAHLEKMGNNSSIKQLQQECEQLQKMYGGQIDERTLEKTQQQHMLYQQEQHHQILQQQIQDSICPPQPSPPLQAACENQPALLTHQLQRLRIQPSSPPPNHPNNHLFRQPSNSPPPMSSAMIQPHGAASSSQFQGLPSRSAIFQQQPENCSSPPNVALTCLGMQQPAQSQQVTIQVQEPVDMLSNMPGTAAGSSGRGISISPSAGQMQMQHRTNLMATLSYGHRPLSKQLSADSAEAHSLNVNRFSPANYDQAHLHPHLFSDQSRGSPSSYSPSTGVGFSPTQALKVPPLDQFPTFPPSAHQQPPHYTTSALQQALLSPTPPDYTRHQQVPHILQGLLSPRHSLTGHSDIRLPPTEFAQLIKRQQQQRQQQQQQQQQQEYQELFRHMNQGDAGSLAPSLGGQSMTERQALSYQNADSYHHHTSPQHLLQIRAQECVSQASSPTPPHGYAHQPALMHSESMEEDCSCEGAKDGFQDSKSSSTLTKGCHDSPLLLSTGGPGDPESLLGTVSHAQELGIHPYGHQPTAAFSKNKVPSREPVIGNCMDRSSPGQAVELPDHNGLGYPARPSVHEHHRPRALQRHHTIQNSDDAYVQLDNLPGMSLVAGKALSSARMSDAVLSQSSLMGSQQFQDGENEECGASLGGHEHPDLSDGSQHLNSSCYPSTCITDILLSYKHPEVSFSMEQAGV
T2 sequence (P57059 whole entry): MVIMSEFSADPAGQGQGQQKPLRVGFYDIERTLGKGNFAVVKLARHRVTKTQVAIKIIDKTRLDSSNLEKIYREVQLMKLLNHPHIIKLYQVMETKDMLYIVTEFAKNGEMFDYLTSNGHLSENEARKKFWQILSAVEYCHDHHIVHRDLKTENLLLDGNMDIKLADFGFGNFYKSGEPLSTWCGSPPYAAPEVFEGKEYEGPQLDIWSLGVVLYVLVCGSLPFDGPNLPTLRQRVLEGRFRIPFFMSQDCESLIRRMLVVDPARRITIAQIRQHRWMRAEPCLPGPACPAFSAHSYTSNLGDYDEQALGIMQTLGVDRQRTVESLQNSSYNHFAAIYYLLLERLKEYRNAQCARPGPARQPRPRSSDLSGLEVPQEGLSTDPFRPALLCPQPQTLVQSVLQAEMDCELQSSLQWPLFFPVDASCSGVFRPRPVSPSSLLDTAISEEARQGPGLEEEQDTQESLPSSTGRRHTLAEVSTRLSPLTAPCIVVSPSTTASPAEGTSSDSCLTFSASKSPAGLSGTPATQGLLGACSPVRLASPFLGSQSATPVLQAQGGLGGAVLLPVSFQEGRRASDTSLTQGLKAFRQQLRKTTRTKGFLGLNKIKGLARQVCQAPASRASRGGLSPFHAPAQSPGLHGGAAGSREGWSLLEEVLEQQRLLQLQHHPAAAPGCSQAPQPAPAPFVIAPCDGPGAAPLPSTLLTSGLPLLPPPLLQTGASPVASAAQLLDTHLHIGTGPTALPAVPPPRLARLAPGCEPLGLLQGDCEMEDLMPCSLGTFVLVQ
T1 sequence (Q9H0K1 whole entry): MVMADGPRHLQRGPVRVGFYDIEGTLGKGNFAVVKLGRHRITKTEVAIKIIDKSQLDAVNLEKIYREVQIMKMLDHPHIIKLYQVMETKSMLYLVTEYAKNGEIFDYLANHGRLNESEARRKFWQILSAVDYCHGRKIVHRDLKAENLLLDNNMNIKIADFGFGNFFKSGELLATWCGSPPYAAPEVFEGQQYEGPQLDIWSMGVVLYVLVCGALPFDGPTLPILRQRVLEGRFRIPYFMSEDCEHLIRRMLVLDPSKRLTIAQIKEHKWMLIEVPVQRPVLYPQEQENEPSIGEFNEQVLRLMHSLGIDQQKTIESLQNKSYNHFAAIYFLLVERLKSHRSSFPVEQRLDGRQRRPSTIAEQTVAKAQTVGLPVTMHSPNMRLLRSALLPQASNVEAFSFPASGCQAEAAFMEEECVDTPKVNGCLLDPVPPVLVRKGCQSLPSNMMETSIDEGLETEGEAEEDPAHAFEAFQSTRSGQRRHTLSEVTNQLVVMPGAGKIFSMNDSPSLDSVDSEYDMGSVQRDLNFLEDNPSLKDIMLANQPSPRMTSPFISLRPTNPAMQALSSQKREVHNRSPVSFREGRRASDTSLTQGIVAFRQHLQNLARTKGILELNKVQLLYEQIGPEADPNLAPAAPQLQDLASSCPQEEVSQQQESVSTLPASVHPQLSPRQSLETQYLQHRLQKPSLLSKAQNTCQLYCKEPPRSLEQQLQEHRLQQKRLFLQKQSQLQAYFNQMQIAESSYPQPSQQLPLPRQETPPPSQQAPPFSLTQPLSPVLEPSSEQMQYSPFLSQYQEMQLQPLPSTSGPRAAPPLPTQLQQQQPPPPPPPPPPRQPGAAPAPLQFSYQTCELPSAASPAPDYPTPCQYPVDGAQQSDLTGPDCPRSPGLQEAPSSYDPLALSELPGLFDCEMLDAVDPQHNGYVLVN

With `COc1cc(-c2cnc3cc(OC[C@@H]4CCN(CCO)C4)ccn23)cc(OC(F)F)c1C(=O)NC1CC1` [Cpd 349, N-cyclopropyl-2-(difluoromethoxy)-4-[7-[[(3R)-1-(2-hydroxyethyl)pyrrolidin-3-yl]methoxy]imidazo[1,2-a]pyridin-3-yl]-6-methoxy-benzamide], the IC50 (in general, the concentration that inhibits the measured activity by half) against SIK2 is 0.01 to 10 nM; against SIK1, 10 to 100 nM; on SIK3, 0.01 to 10 nM. Also, the “IL-10 FCmax median” value in assay [1] is “+++ (>4.5)”. For the same molecule, in assay [2] (4 h), the EC50 (commonly the midpoint of the concentration-response curve) lay within 100 to 1000 nM.
As for `COc1cc(-c2cnc3cc(OC4C[C@H]5CC[C@@H](C4)N5)ccn23)cc(OC(F)F)c1C(=O)NC1CC1.Cl` (stereo partly drawn) [Cpd 270, 4-[7-[[(1R,5S)-8-azabicyclo[3.2.1]octan-3-yl]oxy]imidazo[1,2-a]pyridin-3-yl]-N-cyclopropyl-2-(difluoromethoxy)-6-methoxy-benzamide hydrochloride salt], the IC50 against SIK2 lay within 10 to 100 nM; on SIK1, 100 to 500 nM; at SIK3, 0.01 to 10 nM. In addition, the “IL-10 FCmax median” value in assay [1] is given as “++ (>1.5-4.5)”. In assay [2], this molecule displayed a concentration giving a half-maximal response (EC50) of 1000 to 5000 nM.
With `COc1cc(-c2cnc3cc(OCCC4CCCN4C(C)C)ccn23)cc(OC(F)F)c1C(=O)NC1CC1` (centres unmarked) [compound 301, N-cyclopropyl-2-(difluoromethoxy)-4-[7-[2-(1-isopropylpyrrolidin-2-yl)ethoxy]imidazo[1,2-a]pyridin-3-yl]-6-methoxy-benzamide], the 50% inhibitory concentration (IC50) fell in the range of 0.01 to 10 nM at SIK2, 10 to 100 nM on SIK1 and 0.01 to 10 nM at SIK3. Moreover, the “IL-10 FCmax median” value in assay [1] is “+++ (>4.5)”. In assay [2] (4 h), this molecule had an EC50 of 0.1 to 100 nM.
For `COc1cc(-c2cnc3cc(OC[C@H]4CCCNC4)ccn23)cc(OC(F)F)c1C(=O)NC1CC1` [Cpd 315, N-cyclopropyl-2-(difluoromethoxy)-6-methoxy-4-[7-[[(3S)-3-piperidyl]methoxy]imidazo[1,2-a]pyridin-3-yl]benzamide], the figures for the IC50 against SIK2, at SIK1 and against SIK3 were 0.01 to 10 nM, 10 to 100 nM and 0.01 to 10 nM, respectively. Further, the “IL-10 FCmax median” value in assay [1] is on record as “++ (>1.5-4.5)”. This molecule registered an EC50 in assay [2] (4 h) of 100 to 1000 nM.
As for `COc1cc(-c2cnc3cc(OCC4COCCN4C(C)C)ccn23)cc(OC(F)F)c1C(=O)NC1CC1` (centres unmarked) [compound 283, N-cyclopropyl-2-(difluoromethoxy)-4-[7-[(4-isopropylmorpholin-3-yl)methoxy]imidazo[1,2-a]pyridin-3-yl]-6-methoxy-benzamide], the IC50 against SIK2 fell in the range of 10 to 100 nM; against SIK1 it was 10 to 100 nM; against SIK3, 0.01 to 10 nM. Besides, in assay [1], the “IL-10 FCmax median” value is recorded as “+++ (>4.5)”. In assay [2] (4 h), this molecule came in with an EC50 of 100 to 1000 nM.
On to `COc1cc(-c2cnc3cc(OCCCN4CCC(F)(F)C(O)C4)ccn23)cc(OC(F)F)c1C(=O)NC1CC1` (centres unmarked) [compound 344, N-cyclopropyl-4-[7-[3-(4,4-difluoro-3-hydroxy-1-piperidyl)propoxy]imidazo [1,2-a]pyridin-3-yl]-2-(difluoromethoxy)-6-methoxy-benzamide], for which the IC50 on SIK2 was 0.01 to 10 nM; at SIK1, 10 to 100 nM; against SIK3, 0.01 to 10 nM. For the same molecule, the “IL-10 FCmax median” value in assay [1] is on record as “++ (>1.5-4.5)”. In assay [2] (4 h), this molecule showed an EC50 of 0.1 to 100 nM.
In the case of `COc1cc(-c2cnc3cc(OC[C@@H]4CCCN(C(C)C)C4)ccn23)cc(OC(F)F)c1C(=O)NC1CC1` [compound 338, N-cyclopropyl-2-(difluoromethoxy)-4-[7-[[(3R)-1-isopropyl-3-piperidyl]methoxy]imidazo [1,2-a]pyridin-3-yl]-6-methoxy-benzamide], the results for the IC50 at SIK2, against SIK1 and at SIK3 were 0.01 to 10 nM, 10 to 100 nM and 0.01 to 10 nM, respectively. Besides, the “IL-10 FCmax median” value in assay [1] is “++ (>1.5-4.5)”. In assay [2] (4 h), this molecule returned a half-maximal effective concentration (EC50) of 0.1 to 100 nM.
For `COC(=O)[C@@H]1CN(CC(O)COc2ccn3c(-c4cc(OC)c(C(=O)NC5CC5)c(OC(F)F)c4)cnc3c2)CCO1` (stereo partly drawn) [compound 388, methyl (2S)-4-[3-[3-[4-(cyclopropylcarbamoyl)-3-(difluoromethoxy)-5-methoxy-phenyl]imidazo[1,2-a]pyridin-7-yl]oxy-2-hydroxy-propyl]morpholine-2-carboxylate], the IC50 on SIK2 was in the range of 0.01 to 10 nM; against SIK1, 10 to 100 nM; on SIK3 it was 0.01 to 10 nM. In addition, in assay [1], the “IL-10 FCmax median” value is recorded as “+++ (>4.5)”. The half-maximal effective concentration (EC50) in assay [2] (4 h) fell in the range of 100 to 1000 nM.
Take `COc1cc(-c2cnc3cc(OCC(O)CN4CC(C(=O)OC(C)(C)C)C4)ccn23)cc(OC(F)F)c1C(=O)NC1CC1` (centres unmarked) [compound 394, tert-butyl 1-[3-[3-[4-(cyclopropylcarbamoyl)-3-(difluoromethoxy)-5-methoxy-phenyl]imidazo[1,2-a]pyridin-7-yl]oxy-2-hydroxy-propyl]azetidine-3-carboxylate]: the 50% inhibitory concentration (IC50) is 0.01 to 10 nM on SIK2, 10 to 100 nM against SIK1 and 0.01 to 10 nM on SIK3. For the same molecule, the “IL-10 FCmax median” value in assay [1] is “++ (>1.5-4.5)”. The same molecule yielded a concentration for a half-maximal effect (EC50) in assay [2] (4 h) of 0.1 to 100 nM.
Regarding `COc1cc(-c2cnc3cc(OCCNC(=O)C(F)F)ccn23)cc(OC(F)F)c1C(=O)NC1CC1` [Cpd 371, N-cyclopropyl-4-[7-[2-[(2,2-difluoroacetyl)amino]ethoxy]imidazo[1,2-a]pyridin-3-yl]-2-(difluoromethoxy)-6-methoxy-benzamide], the IC50 against SIK2, on SIK1 and at SIK3 was 0.01 to 10 nM throughout. Besides, the “IL-10 FCmax median” value in assay [1] is “++ (>1.5-4.5)”. In assay [2] (4 h), this molecule had a concentration giving a half-maximal response (EC50) of 100 to 1000 nM.
Turning to `COc1cc(-c2cnc3cc(OCCCN4C(C)CCCC4C)ccn23)cc(OC(F)F)c1C(=O)NC1CC1` (centres unmarked) [compound 290, N-cyclopropyl-2-(difluoromethoxy)-4-[7-[3-(2,6-dimethyl-1-piperidyl)propoxy]imidazo [1,2-a]pyridin-3-yl]-6-methoxy-benzamide], the 50% inhibitory concentration (IC50) was 0.01 to 10 nM at SIK2, 10 to 100 nM at SIK1 and 0.01 to 10 nM on SIK3. Moreover, the “IL-10 FCmax median” value in assay [1] is “+++ (>4.5)”. The molecule also yielded a concentration for a half-maximal effect (EC50) in assay [2] (4 h) of 0.1 to 100 nM.
Take `CCOC(=O)C1(C)CN(CCCOc2ccn3c(-c4cc(OC)c(C(=O)NC5CC5)c(OC(F)F)c4)cnc3c2)C1` [compound 385, ethyl 1-[3-[3-[4-(cyclopropylcarbamoyl)-3-(difluoromethoxy)-5-methoxy-phenyl]imidazo[1,2-a]pyridin-7-yl]oxypropyl]-3-methyl-azetidine-3-carboxylate]: the IC50 against SIK2 was 0.01 to 10 nM; against SIK1, 10 to 100 nM; against SIK3 it was 0.01 to 10 nM. The “IL-10 FCmax median” value in assay [1] is recorded as “+++ (>4.5)”. For the same molecule, the 50% effective concentration (EC50) in assay [2] (4 h) is 0.1 to 100 nM.
Take `COc1cc(-c2cnc3cc(OCCCN4CCCC5(COC5)C4)ccn23)cc(OC(F)F)c1C(=O)NC1CC1` [compound 303, N-cyclopropyl-2-(difluoromethoxy)-6-methoxy-4-[7-[3-(2-oxa-8-azaspiro[3.5]nonan-8-yl)propoxy]imidazo[1,2-a]pyridin-3-yl]benzamide]: the IC50 against SIK2 lay in the range of 0.01 to 10 nM; against SIK1, 10 to 100 nM; on SIK3, 0.01 to 10 nM. Further, the “IL-10 FCmax median” value in assay [1] is recorded as “+++ (>4.5)”. Moreover, the EC50 in assay [2] (4 h) lay in the range of 0.1 to 100 nM.
With `COc1cc(-c2cnc3cc(OCCCN4CC(C)(O)C4)ccn23)cc(OC(F)F)c1C(=O)NC1CC1` [compound 362, N-cyclopropyl-2-(difluoromethoxy)-4-[7-[3-(3-hydroxy-3-methyl-azetidin-1-yl)propoxy]imidazo[1,2-a]pyridin-3-yl]-6-methoxy-benzamide], the half-inhibitory concentration (IC50) on SIK2 fell in the range of 0.01 to 10 nM; at SIK1 it was 10 to 100 nM; on SIK3, 0.01 to 10 nM. In assay [1], the “IL-10 FCmax median” value is given as “++ (>1.5-4.5)”. This molecule also registered an EC50 in assay [2] (4 h) of 100 to 1000 nM.
`COc1cc(-c2cnc3cc(OC[C@@H]4CCNC4)ccn23)cc(OC(F)F)c1C(=O)NC1CC1` [Cpd 334, N-cyclopropyl-2-(difluoromethoxy)-6-methoxy-4-[7-[[(3R)-pyrrolidin-3-yl]methoxy]imidazo[1,2-a]pyridin-3-yl]benzamide]: the values for the 50% inhibitory concentration (IC50) against SIK2, at SIK1 and against SIK3 were 0.01 to 10 nM, 10 to 100 nM and 0.01 to 10 nM, respectively. Moreover, the “IL-10 FCmax median” value in assay [1] is reported as “++ (>1.5-4.5)”. In addition, the 50% effective concentration (EC50) in assay [2] (4 h) lay in the range of 100 to 1000 nM.
As to `COc1cc(-c2cnc3cc(OCCCN4CCC(F)(CO)CC4)ccn23)cc(OC(F)F)c1C(=O)NC1CC1` [compound 360, N-cyclopropyl-2-(difluoromethoxy)-4-[7-[3-[4-fluoro-4-(hydroxymethyl)-1-piperidyl]propoxy]imidazo [1,2-a]pyridin-3-yl]-6-methoxy-benzamide], the IC50 lay within 0.01 to 10 nM against SIK2, 10 to 100 nM on SIK1 and 0.01 to 10 nM against SIK3. Also, the “IL-10 FCmax median” value in assay [1] is “++ (>1.5-4.5)”. The EC50 in assay [2] (4 h) is 0.1 to 100 nM.
